As usually defined, the EC50 is the concentration at which the effect is half-maximal. High values mean a need for much substance, low ones an effect from little substance.

From US9840513B2 (AbbVie S.à.r.l., priority 2015, dated 2017) come the findings set out here.

For this assay, the target named is T1, F508delCFTR cell surface expression in CFBE41o-F508delCFTR-HRP cells (Homo sapiens, UniProt P13569, DEL508-508).
T1 construct: fused on or other part: Horseradish peroxidase (HRP) reporter inserted in the fourth exofacial (extracellular) loop of CFTR; expression is doxycycline-inducible
T1 sequence (P13569 with tags, fused parts or gaps DEL508-508 limits assumed): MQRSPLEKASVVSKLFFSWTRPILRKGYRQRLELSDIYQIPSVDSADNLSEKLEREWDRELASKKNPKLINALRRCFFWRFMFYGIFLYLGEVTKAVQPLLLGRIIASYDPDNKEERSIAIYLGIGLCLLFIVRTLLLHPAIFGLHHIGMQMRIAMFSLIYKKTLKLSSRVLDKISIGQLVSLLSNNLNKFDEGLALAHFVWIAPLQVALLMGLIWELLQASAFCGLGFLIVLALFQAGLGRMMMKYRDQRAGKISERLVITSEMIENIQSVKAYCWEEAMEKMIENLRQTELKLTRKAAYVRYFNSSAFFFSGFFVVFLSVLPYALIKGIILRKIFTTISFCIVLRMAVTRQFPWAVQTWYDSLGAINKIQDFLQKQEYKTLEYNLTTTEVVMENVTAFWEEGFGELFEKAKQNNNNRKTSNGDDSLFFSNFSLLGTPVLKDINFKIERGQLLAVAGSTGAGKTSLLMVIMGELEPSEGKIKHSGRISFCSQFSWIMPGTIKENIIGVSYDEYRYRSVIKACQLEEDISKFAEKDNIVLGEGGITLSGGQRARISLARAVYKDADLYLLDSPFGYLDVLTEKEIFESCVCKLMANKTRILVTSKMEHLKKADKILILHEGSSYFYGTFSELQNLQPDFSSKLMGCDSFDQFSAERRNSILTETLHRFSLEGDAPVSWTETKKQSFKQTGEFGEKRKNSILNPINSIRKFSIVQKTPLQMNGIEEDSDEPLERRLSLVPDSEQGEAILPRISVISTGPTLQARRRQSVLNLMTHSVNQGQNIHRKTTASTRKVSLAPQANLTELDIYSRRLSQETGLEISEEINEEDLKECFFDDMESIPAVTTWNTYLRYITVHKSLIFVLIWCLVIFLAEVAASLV
T1 sequence (P13569 919-1480 limits assumed, stated change not applied): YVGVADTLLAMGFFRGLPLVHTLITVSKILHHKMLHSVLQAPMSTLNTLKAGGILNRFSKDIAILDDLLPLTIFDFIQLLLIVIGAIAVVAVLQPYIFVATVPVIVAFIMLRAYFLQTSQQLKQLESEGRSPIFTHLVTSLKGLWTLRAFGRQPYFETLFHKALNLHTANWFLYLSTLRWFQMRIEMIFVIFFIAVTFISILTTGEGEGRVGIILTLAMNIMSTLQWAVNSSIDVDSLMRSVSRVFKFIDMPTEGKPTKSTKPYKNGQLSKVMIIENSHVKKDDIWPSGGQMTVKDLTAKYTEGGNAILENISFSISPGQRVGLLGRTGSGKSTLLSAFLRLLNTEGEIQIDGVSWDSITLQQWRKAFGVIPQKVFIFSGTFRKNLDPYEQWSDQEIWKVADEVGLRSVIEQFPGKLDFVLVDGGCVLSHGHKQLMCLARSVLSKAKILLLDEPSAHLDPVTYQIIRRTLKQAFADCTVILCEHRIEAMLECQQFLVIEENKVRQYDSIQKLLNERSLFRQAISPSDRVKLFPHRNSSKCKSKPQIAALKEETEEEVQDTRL
Put plainly: Cell Surface Expression-Horse Radish Peroxidase (CSE-HRP) Assay. The settings on record: for EC50: CFBE41o-F508delCFTR-HRP cells, 18-24 hours at 33° C., 8-point curve, highest concentration 20 μM; for Maximum % activity (%): maximum at any tested concentration, normalized to on-plate positive control (3 μM). In kind it is cell-based. The text has this:
Cell Surface Expression-Horse Radish Peroxidase (CSE-HRP) Assay:
A cellular assay for measuring the F508delCFTR cell surface expression after correction with test compounds was developed in human lung derived epithelial cell line (CFBE41o-) (Veit G et al, (2012) Mol Biol Cell. 23(21): 4188-4202). This was achieved by expressing the F508delCFTR mutation along with a horseradish peroxidase (HRP) in the fourth exofacial loop and then measuring the HRP activity using luminescence readout from these cells, CFBE41o-F508delCFTR-HRP, that were incubated overnight with the test corrector compounds. Briefly, for this primary assay, the CFBE41o-F508delCFTR-HRP cells were plated in 384-well plates (Greiner Bio-one; Cat 781080) at 4,000 cells/well along with 0.5 μg/mL doxycycline to induce the F508delCFTR-HRP expression and further incubated at 37° C., 5% CO2 for 72 hours. The test compounds were then added at the required concentrations and further incubated for 18-24 hours at 33° C. The highest concentration tested was 20 μM with an 8-point concentration response curve using a 3-fold dilution. Three replicate plates were run to determine one EC50. All plates contained negative controls (dimethyl sulfoxide, DMSO) and positive controls (3 μM of 3-[(2R,4R)-4-({[1-(2,2-difluoro-1,3-benzodioxol-5-yl)cyclopropyl]carbonyl}amino)-7-methoxy-3,4-dihydro-2H-chromen-2-yl]benzoic acid) as well as on-plate concentration response of the positive control. Post incubation, the plates were washed 5× times with Dulbecco's phosphate buffered saline (DPBS), followed by the addition of the HRP substrate, luminol (50 μL), and measuring the HRP activity using luminescence readout on EnVision® Multilabel Plate Reader (Perkin Elmer; product number 2104-0010). The raw counts from the experiment are analyzed using Accelrys® Assay Explorer v3.3.
Z′ greater than 0.5 was used as passing quality control criteria for the plates.
The Z′ is defined as: 1−[3*SDPositive Control+3*SDNegative Control/Absolute(MeanPositive Control−MeanNegative Control)] wherein “SD” is standard deviation.
The % activity measured at each of the 8 test concentrations of the test compound was normalized to the on-plate positive control using the following formula: % activity=[(test compound response DMSO response)/(positive control response DMSO response)]*100
The maximum % activity achieved for the test compound at any tested concentration is presented in Table 1 along with the EC50 calculated using the following general sigmoidal curve with variable Hill slope equation (described as Model 42 in the Accelrys® Assay Explorer v3.3 software): y=(a−d)/(1+(x/c)^b)+d
General sigmoidal curve with concentration, response, top, bottom, EC50 and Hill slope.
This model describes a sigmoidal curve with an adjustable baseline, a. The equation can be used to fit curves where response is either increasing or decreasing with respect to the independent variable, “x”.
“x” is a concentration of drug under test.
“a” is the maximum response, and “d” is the minimum response
“c” is the inflection point (EC50) for the curve. That is, “y” is halfway between the lower and upper asymptotes when x=c.
“b” is the slope-factor or Hill coefficient. The sign of b is positive when the response increases with increasing dose and is negative when the response decreases with increasing dose (inhibition).

As for `C[C@]1(C(=O)N[C@@H]2C[C@H](C3CCN(CC(=O)O)CC3)Oc3cc(OC(F)(F)F)ccc32)COc2cc3c(cc21)OC(F)(F)O3` [Example 187, {4-[(2R,4R)-4-{[(7R)-2,2-difluoro-7-methyl-6,7-dihydro-2H-furo[2,3-f][1,3]benzodioxole-7-carbonyl]amino}-7-(trifluoromethoxy)-3,4-dihydro-2H-1-benzopyran-2-yl]piperidin-1-yl}acetic acid], the EC50 worked out at 2540 nM and the “Maximum % activity (%)” value is given as 129%.
In the same order, the values of `CC(C)(C)c1cc2cc(NC(=O)[C@@]3(C)COc4cc5c(cc43)OC(F)(F)O5)c(F)cc2n1C[C@@H](O)COCc1ccccc1` [Example 132, (7R)—N-{1-[(2R)-3-(benzyloxy)-2-hydroxypropyl]-2-tert-butyl-6-fluoro-1H-indol-5-yl}-2,2-difluoro-7-methyl-6,7-dihydro-2H-furo[2,3-f][1,3]benzodioxole-7-carboxamide] are 330 nM and 138%.
The matching figures for `Cc1cc(NC(=O)[C@@]2(C)COc3cc4c(cc32)OC(F)(F)O4)nc(-c2cccc(C(=O)O)c2)c1` [Example 103, 3-(6-{[(7R)-2,2-difluoro-7-methyl-6,7-dihydro-2H-furo[2,3-f][1,3]benzodioxole-7-carbonyl]amino}-4-methylpyridin-2-yl)benzoic acid]: 1720 nM and 170%.
With `C[C@]1(C(=O)Nc2ccc(N3CCC(O)C3)nc2)COc2cc3c(cc21)OC(F)(F)O3` (stereo partly drawn) [Example 72, (7R)-2,2-difluoro-N-[6-(3-hydroxypyrrolidin-1-yl)pyridin-3-yl]-7-methyl-6,7-dihydro-2H-furo[2,3-f][1,3]benzodioxole-7-carboxamide], the midpoint of the response, the EC50, lay at 9200 nM and the “Maximum % activity (%)” value was 28%.
In the same order, the values of `C[C@]1(C(=O)Nc2cccc(-c3cc(C(=O)O)ccc3F)n2)COc2cc3c(cc21)OC(F)(F)O3` [Example 128, 3-(6-{[(7R)-2,2-difluoro-7-methyl-6,7-dihydro-2H-furo[2,3-f][1,3]benzodioxole-7-carbonyl]amino}pyridin-2-yl)-4-fluorobenzoic acid] are 4960 nM and 172%.
In the same order, the values of “4-[(2R,4S,6S)-4-{[(7R)-2,2-difluoro-7-methyl-6,7-dihydro-2H-furo[2,3-f][1,3]benzodioxole-7-carbonyl]amino}-6-phenyloxan-2-yl]benzoic acid and 4-[(2S,4R,6R)-4-{[(7R)-2,2-difluoro-7-methyl-6,7-dihydro-2H-furo[2,3-f][1,3]benzodioxole-7-carbonyl]amino}-6-phenyloxan-2-yl]benzoic acid [Example 34]” are 480 nM and 109%.
In the case of `CCOC(=O)[C@H]1CC[C@H]([C@H]2C[C@@H](NC(=O)[C@@]3(C)COc4cc5c(cc43)OC(F)(F)O5)c3ccc(OC)cc3O2)CC1` [Example 153, ethyl trans-4-[(2R,4R)-4-{[(7R)-2,2-difluoro-7-methyl-6,7-dihydro-2H-furo[2,3-f][1,3]benzodioxole-7-carbonyl]amino}-7-methoxy-3,4-dihydro-2H-1-benzopyran-2-yl]cyclohexane-1-carboxylate], it took 304 nM to reach a half-maximal effect (EC50) and the “Maximum % activity (%)” value worked out at 135%.
For the molecule `COc1ccc2c(c1)O[C@@H](c1ccc(C(=O)NCC3CNC(=O)C3)cn1)C[C@H]2NC(=O)[C@@]1(C)COc2cc3c(cc21)OC(F)(F)O3` (stereo partly drawn) [Example 231, 6-[(2R,4R)-4-{[(7R)-2,2-difluoro-7-methyl-6,7-dihydro-2H-furo[2,3-f][1,3]benzodioxole-7-carbonyl]amino}-7-methoxy-3,4-dihydro-2H-1-benzopyran-2-yl]-N-[(5-oxopyrrolidin-3-yl)methyl]pyridine-3-carboxamide], the EC50 is 250 nM and the “Maximum % activity (%)” value was 103%.
On to `Cc1cc(C(=O)O)ccc1-c1cccc(NC(=O)[C@@]2(C)COc3cc4c(cc32)OC(F)(F)O4)n1` [Example 120, 4-(6-{[(7R)-2,2-difluoro-7-methyl-6,7-dihydro-2H-furo[2,3-f][1,3]benzodioxole-7-carbonyl]amino}pyridin-2-yl)-3-methylbenzoic acid], for which the EC50 turned out to be 1440 nM and the “Maximum % activity (%)” value is 253%.
Consider `CC1(C(=O)Nc2cccc(-c3ccccc3)c2)COc2cc3c(cc21)OC(F)(F)O3` (stereo not drawn) [Example 54, N-([1,1′-biphenyl]-3-yl)-2,2-difluoro-7-methyl-6,7-dihydro-2H-furo[2,3-f][1,3]benzodioxole-7-carboxamide], for which the EC50 came out at 6450 nM and the “Maximum % activity (%)” value stood at 151%.
In the same order, the values of `COc1ccc2c(c1)O[C@@H](c1ccc(C(=O)N(CCO)Cc3ccccc3)cn1)C[C@H]2NC(=O)[C@@]1(C)COc2cc3c(cc21)OC(F)(F)O3` [Example 210, N-benzyl-6-[(2R,4R)-4-{[(7R)-2,2-difluoro-7-methyl-6,7-dihydro-2H-furo[2,3-f][1,3]benzodioxole-7-carbonyl]amino}-7-methoxy-3,4-dihydro-2H-1-benzopyran-2-yl]-N-(2-hydroxyethyl)pyridine-3-carboxamide] are 30 nM and 147%.
On to `C[C@]1(C(=O)Nc2cccc(N3CCCC3)n2)COc2cc3c(cc21)OC(F)(F)O3` [Example 118, (7R)-2,2-difluoro-7-methyl-N-[6-(pyrrolidin-1-yl)pyridin-2-yl]-6,7-dihydro-2H-furo[2,3-f][1,3]benzodioxole-7-carboxamide], for which the EC50 was determined as 1220 nM and the “Maximum % activity (%)” value is recorded as 123%.
In the same order, the values of `COc1ccc2c(c1)O[C@@H](c1ccc(C(=O)O)cc1)C[C@H]2NC(=O)[C@]1(C)COc2cc3c(cc21)OC(F)(F)O3` [Example 18, 4-[(2R,4R)-4-{[(7S)-2,2-difluoro-7-methyl-6,7-dihydro-2H-furo[2,3-f][1,3]benzodioxole-7-carbonyl]amino}-7-methoxy-3,4-dihydro-2H-1-benzopyran-2-yl]benzoic acid] are 5750 nM and 91%.
The matching figures for `C[C@]1(C(=O)N[C@H]2C[C@@H](C3CCNCC3)Oc3cc(OC(F)(F)F)ccc32)COc2cc3c(cc21)OC(F)(F)O3` [Example 185, (7R)-2,2-difluoro-7-methyl-N-[(2S,4S)-2-(piperidin-4-yl)-7-(trifluoromethoxy)-3,4-dihydro-2H-1-benzopyran-4-yl]-6,7-dihydro-2H-furo[2,3-f][1,3]benzodioxole-7-carboxamide]: 3350 nM and 31%.
In the same order, the values of `CCOC(=O)[C@H]1CC[C@H]([C@@H]2C[C@H](NC(=O)[C@@]3(C)COc4cc5c(cc43)OC(F)(F)O5)c3ccc(OC(F)(F)F)cc3O2)CC1` [Example 147, ethyl trans-4-[(2S,4S)-4-{[(7R)-2,2-difluoro-7-methyl-6,7-dihydro-2H-furo[2,3-f][1,3]benzodioxole-7-carbonyl]amino}-7-(trifluoromethoxy)-3,4-dihydro-2H-1-benzopyran-2-yl]cyclohexane-1-carboxylate] are 2240 nM and 79%.
